Several values for one entry are separate records, joined by “and”; a condition that tells them apart may be missing. Identical values can stand only once.
Biological target: T1, xanthine oxidase (grade I from buttermilk) (Bos taurus, UniProt P80457)
T1 construct: XOD (xanthine oxidase) (grade I from buttermilk); from tissue; host or cells: buttermilk
Experiment: Xanthine oxidase inhibition (xanthine oxidase assay), uric acid production
Format: biochemical
Conditions: xanthine substrate, pH 7.8, absorbance at 295 nm
Method: Xanthine Oxidase Inhibition (Xanthine Oxidase Assay)
The activity of xanthine oxidase is determined by means of the uric acid production.
This solution is maintained on ice during the entire experiment to prevent changes in the activity of the enzyme.
724 μl phophate buffer pH=7.8
10 μl DMSO or the substance to be tested dissolved in DMSO
The reaction is started by addition of 66 μl of the enzyme solution to the above described assay mixture. […] If the reaction is linear, the result is expressed as Δ absorbance/min. […] The maximum activity is the activity of the enzyme, when no substance is dissolved in DMSO.

T1 sequence (P80457 whole entry): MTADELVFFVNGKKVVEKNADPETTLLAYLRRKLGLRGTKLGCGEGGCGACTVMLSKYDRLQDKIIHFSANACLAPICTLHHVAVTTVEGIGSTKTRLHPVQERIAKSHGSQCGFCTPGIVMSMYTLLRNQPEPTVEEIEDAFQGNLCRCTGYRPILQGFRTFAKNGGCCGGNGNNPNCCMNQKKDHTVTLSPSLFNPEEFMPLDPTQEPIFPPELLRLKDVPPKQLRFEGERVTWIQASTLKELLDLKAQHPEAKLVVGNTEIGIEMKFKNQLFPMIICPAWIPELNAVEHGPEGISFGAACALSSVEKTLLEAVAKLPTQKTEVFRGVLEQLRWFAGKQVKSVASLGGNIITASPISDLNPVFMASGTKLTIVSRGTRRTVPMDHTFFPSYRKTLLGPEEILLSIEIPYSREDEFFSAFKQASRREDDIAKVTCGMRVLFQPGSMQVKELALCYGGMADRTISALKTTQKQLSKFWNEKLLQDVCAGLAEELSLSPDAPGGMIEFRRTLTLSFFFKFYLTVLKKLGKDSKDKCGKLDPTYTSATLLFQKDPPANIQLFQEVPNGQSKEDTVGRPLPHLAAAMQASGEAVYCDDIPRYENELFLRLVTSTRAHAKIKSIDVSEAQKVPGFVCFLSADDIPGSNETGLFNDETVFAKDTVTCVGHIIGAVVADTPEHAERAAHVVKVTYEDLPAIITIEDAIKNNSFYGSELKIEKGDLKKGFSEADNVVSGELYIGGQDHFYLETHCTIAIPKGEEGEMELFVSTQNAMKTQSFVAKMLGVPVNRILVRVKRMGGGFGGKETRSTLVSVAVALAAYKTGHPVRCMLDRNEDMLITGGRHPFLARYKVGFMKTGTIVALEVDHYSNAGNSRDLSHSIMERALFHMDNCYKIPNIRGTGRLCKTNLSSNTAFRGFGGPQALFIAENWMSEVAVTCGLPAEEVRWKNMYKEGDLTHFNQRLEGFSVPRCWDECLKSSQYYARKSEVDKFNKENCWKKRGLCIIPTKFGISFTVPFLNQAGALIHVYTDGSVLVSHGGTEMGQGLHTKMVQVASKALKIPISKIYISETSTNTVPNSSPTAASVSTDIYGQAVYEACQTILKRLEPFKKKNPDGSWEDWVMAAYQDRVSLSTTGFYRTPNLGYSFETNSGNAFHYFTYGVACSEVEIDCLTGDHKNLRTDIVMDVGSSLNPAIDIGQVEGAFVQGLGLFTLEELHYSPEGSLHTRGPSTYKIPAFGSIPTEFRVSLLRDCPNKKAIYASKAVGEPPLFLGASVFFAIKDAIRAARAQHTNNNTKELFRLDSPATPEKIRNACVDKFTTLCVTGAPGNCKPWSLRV

IC-50 xanthine oxidase inhibition	SMILES
not detectable	COc1cc(/C=C/C(=O)CC(=O)/C=C/c2ccc(O)c(OC)c2)ccc1O [Curcumin]
not detectable	Oc1cc(O)c2c(c1)O[C@H](c1ccc(O)c(O)c1)[C@H](O)C2 [Epicatechin]

SMILES	IC-50 xanthine oxidase inhibition
O=C(O[C@@H]1Cc2c(O)cc(O)cc2O[C@@H]1c1cc(O)c(O)c(O)c1)c1cc(O)c(O)c(O)c1 [Epigalo-catechin-galate (ECCG), Epigalo-catechin-galate]	not detectable

Same assay, conditions: xanthine substrate, pH 7.8, absorbance at 295 nm; read-out: IC-50 xanthine oxidase inhibition (converted)

IC50	SMILES
999 nM and 1000 nM	O=c1cc(-c2ccc(O)cc2)oc2cc(O)cc(O)c12 [Apigenin]
2540 nM and 2500 nM	O=c1cc(-c2ccccc2)oc2cc(O)cc(O)c12 [Chrysin]
751 nM and 750 nM	O=c1cc(-c2ccc(O)c(O)c2)oc2cc(O)cc(O)c12 [Luteolin]

SMILES	IC50
O=c1c(O)c(-c2cc(O)c(O)c(O)c2)oc2cc(O)cc(O)c12 [Myricetin]	1510 nM and 1500 nM

Tested on: not listed separately
Experiment: Peroxyl radical scavenging (β-phycoerythrin fluorescence assay, ORACROO)
Format: biochemical
Parameters: key to TE (Trolox equivalent) (based on mole weight): ratio of net curve area to Trolox's, molar basis
Conditions: relative to Trolox, area under fluorescence curve
Method: In the β-phycoerythrin fluorescence based assay the reduction of β-phycoerythrin decomposition by radicals resulting from the thermal decomposition of V50 is measured. […]
Peroxyl Radical Scavenging (β-phycoerythrin fluorescence assay)
The principle underlying the present method is that B-phycoerythrin is decomposed by radicals that are the result of the thermolitic decomposition of V50 at 20° C. When a product scavenges these radicals, the decrease in fluorescence in time will occur less quickly. All measurements should be carried out at least in threefold.
AAPH (2,2′-azobis(2-aminopropane)dihydrochloride) (e.g. from Wako Chemicals)=V50; MW=271.19 g/mol; 16 mM in the assay
β-PE (e.g. from Sigma) MW=240,000 g /mol; 16.7 nM in the assay
Trolox (e.g. from Aldrich) MW =250.29 g/mol; in the assay test in the range of 1-10 μM.
Each tray should contain trolox as a reference and as a standard (2 μM or 0.5 mg/l). As a negative control a sample is taken containing only 10 μl ethanol, 50 μl 50 mM PBS, pH=7.4 and 50 μl 66.8 nM β-PE.
The reaction is started by adding 100 μl 32nM V-50. The time between pipetting and mixing of this last step in a well and the measurement of this well, should be constant. Further, the time between the last pipetting step in a well and the first measurement of the well should be less than 2 minutes.
V-50 should be stored in the dark at 4° C. until used. The reaction kinetics of the wells are monitored in a continuous monitoring process. The excitation wavelength is 540 nm, while the emission wavelength is 565 nm. The reaction is monitored until the signal of the sample differs no longer from the background signal (±10%). The area underneath the curve of the negative reference is subtracted from the area underneath the substance to be measured. This difference in area is then related to a difference in area in relation to a negative reference resulting from trolox.

SMILES	TE (Trolox equivalent) (based on mass)	TE (Trolox equivalent) (based on mole weight)
O=c1cc(-c2ccc(O)cc2)oc2cc(O)cc(O)c12 [Apigenin]	1.56	1.69
O=C(O[C@@H]1Cc2c(O)cc(O)cc2O[C@@H]1c1cc(O)c(O)c(O)c1)c1cc(O)c(O)c(O)c1 [Epigalo-catechin-galate (ECCG), Epigalo-catechin-galate]	0.54	0.99
O=c1cc(-c2ccc(O)c(O)c2)oc2cc(O)cc(O)c12 [Luteolin]	1.22	1.40
O=c1c(O)c(-c2cc(O)c(O)c(O)c2)oc2cc(O)cc(O)c12 [Myricetin]	0.89	1.13
O=C1c2ccc(O)cc2O[C@H](c2ccc(O)c(O)c2)[C@H]1O [fustin]	1.07	1.24
O=c1c(O)c(-c2ccc(O)c(O)c2)oc2cc(O)cc(O)c12 [quercetin]	1.32	1.78

From patent publication US20060270615A1, “Compositions suitable for the treatment of damage caused by ischemia/reper-fusion or oxidative stress” (N.V. NUTRICIA, priority 2000, published 2006)
